From ChEMBL document CHEMBL1130368, “Potent carboxylate inhibitors of stromelysin containing P2 piperazic acids and P1 biaryl moeities” (Bioorg Med Chem Lett, 1997) come the findings set out here.

Where only a bound is given, the exact number is not on record here.

The IC50 is the point on the concentration scale where inhibition reaches its midpoint. As a reminder, the Ki is the equilibrium dissociation constant of an inhibitor or competing ligand from its target. Lower therefore signals tighter binding.

Stromelysin-1, sequence (P08254 whole entry): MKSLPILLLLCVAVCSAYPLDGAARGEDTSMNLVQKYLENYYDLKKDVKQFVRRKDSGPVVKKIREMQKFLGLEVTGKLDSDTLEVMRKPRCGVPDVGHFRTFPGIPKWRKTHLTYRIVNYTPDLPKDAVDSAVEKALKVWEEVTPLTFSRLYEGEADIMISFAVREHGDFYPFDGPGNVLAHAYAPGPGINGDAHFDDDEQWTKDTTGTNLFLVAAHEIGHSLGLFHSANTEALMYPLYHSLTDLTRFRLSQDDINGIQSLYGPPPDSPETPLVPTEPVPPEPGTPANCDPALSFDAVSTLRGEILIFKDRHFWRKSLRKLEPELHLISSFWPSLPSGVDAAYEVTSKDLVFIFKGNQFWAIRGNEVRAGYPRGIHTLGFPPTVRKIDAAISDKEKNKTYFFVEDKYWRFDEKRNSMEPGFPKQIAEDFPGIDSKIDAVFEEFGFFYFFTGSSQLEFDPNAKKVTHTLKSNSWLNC

This test concerns the target Stromelysin-1 (Homo sapiens, UniProt P08254). Kind of test: Inhibition of Matrix metalloprotease-3 by MCA peptide assay.
In the case of `CNC(=O)[C@@H]1CCCNN1C(=O)[C@H](CCOc1ccc(CC2CCCC2)cc1)N[C@H](C)C(=O)O`, the IC50 was more than 200000 nM.
`CCCC[C@@H](C[C@@H](CCc1ccc(-c2ccccc2)cc1)C(=O)N[C@@H](Cc1ccc(OC)cc1)C(=O)NC)C(=O)O` came in with a Ki of 21 nM.
`CNC(=O)[C@H](Cc1ccc(OC)cc1)NC(=O)[C@H](CCc1ccc(-c2ccccc2)cc1)C[C@H](C)C(=O)O` came in with an IC50 of 81 nM.
Regarding `CNC(=O)[C@@H]1CCCNN1C(=O)[C@H](CCOc1ccc(-c2ccccc2)cc1)N[C@H](C)C(=O)O`, the Ki worked out at 77 nM.
With `CNC(=O)[C@@H]1CCCNN1C(=O)[C@H](CCOc1ccc(C(C)C)cc1)N[C@H](C)C(=O)O`, the IC50 is more than 200000 nM.
Compound `CNC(=O)[C@H](Cc1ccc(OC)cc1)NC(=O)[C@H](CCc1ccccc1)C[C@H](C)C(=O)O` gave an IC50 of 55000 nM.
The same measure, in the same setting: the result for `CNC(=O)[C@@H]1CCCNN1C(=O)[C@H](CC(C)C)[C@H](C)C(=O)NO` reads 30 nM.
In turn, `CNC(=O)[C@@H]1CCCNN1C(=O)[C@H](CCOc1ccc(Cc2ccccc2)cc1)N[C@H](C)C(=O)O` came in with a Ki of 552 nM.
On the same count and under the same terms, the result for `CCCCc1ccc(OCC[C@H](N[C@H](C)C(=O)O)C(=O)N2NCCC[C@H]2C(=O)NC)cc1` reads 550 nM.
In the case of `CCCC[C@@H](C[C@@H](CCc1ccc(-c2ccccc2)cc1)C(=O)N1NCCC[C@H]1C(=O)NC)C(=O)O`, the Ki was 42 nM. Compared with the last compound, the Ki is about 13-fold lower.
